This passage reports GI50 and TGI results from PubChem BioAssay (NCI).

Several values for one entry are separate records, joined by “and”; a condition that tells them apart may be missing. Equal entries are not always repeated.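 Dose response: 5 concentrations. Exposure: 48 h. Format: 96-well plates. Endpoint: linear interpolation; highest concentration if not reached. Abbreviation: GI50, concentration required for 50% inhibition of growth. The concentration for full growth arrest is given as TGI.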

Some test systems named below: ACHN renal; HOP-92 NSCLC; IGROV1 ovarian; NCI/ADR-RES ovarian; PC-3 prostate; SK-MEL-2 melanoma; SK-MEL-28 melanoma; SNB-75 CNS; M14 melanoma.
Holding throughout (experiment): NCI-60 cell line screen, 48 h

Turning to `Cc1ccc(C(=O)N(CCCN)C(c2oc3cc(Cl)ccc3c(=O)c2Cc2ccccc2)C(C)C)cc1` (stereo unspecified), the GI50 in the experiment with ACHN renal was 1.07 µM; in the experiment on HOP-92 NSCLC, less than 0.01 µM; with NCI/ADR-RES ovarian, 0.11 µM; in the experiment with PC-3 prostate, less than 0.01 µM; in the experiment with SK-MEL-2 melanoma, less than 0.01 µM; in the experiment on SK-MEL-28 melanoma, 1.07 µM. In addition, in the experiment on SNB-75 CNS, the GI50 is less than 0.01 µM. Besides, the TGI with ACHN renal amounted to 2.39 µM; in the experiment with HOP-92 NSCLC, 1.76 µM; in the experiment with IGROV1 ovarian it was 2.72 µM; in the experiment with NCI/ADR-RES ovarian it was 1.17 µM; in the experiment with PC-3 prostate it was 2.03 µM; in the experiment with SK-MEL-28 melanoma it was 2.5 µM. In the experiment on SNB-75 CNS, the TGI is 1.46 µM.

For the molecule `O=C(O)CCNC1CCCCC1`, the GI50 with ACHN renal, with HOP-92 NSCLC, with IGROV1 ovarian, in the experiment with M14 melanoma, in the experiment on NCI/ADR-RES ovarian and in the experiment with PC-3 prostate was more than 100 µM in each case. Also, the GI50 in the experiment on SK-MEL-2 melanoma, in the experiment on SK-MEL-28 melanoma and with SNB-75 CNS was more than 100 µM in each case. The TGI in the experiment on ACHN renal, in the experiment on HOP-92 NSCLC, in the experiment with IGROV1 ovarian, in the experiment on M14 melanoma, with NCI/ADR-RES ovarian and in the experiment with PC-3 prostate was more than 100 µM throughout. For the same molecule, the TGI in the experiment with SK-MEL-2 melanoma, in the experiment with SK-MEL-28 melanoma and in the experiment on SNB-75 CNS was more than 100 µM throughout.

On to `O=C1CCC(N2C(=O)c3ccccc3C2=O)C(=O)N1CO` (stereo unspecified), for which the GI50 is 95.2 µM with ACHN renal; 25 µM in the experiment on HOP-92 NSCLC; 52.5 µM in the experiment with IGROV1 ovarian; 54.7 µM in the experiment on M14 melanoma; more than 100 µM with NCI/ADR-RES ovarian; 47.2 µM in the experiment on PC-3 prostate. In addition, the GI50 in the experiment with SK-MEL-2 melanoma, in the experiment on SK-MEL-28 melanoma and with SNB-75 CNS was more than 100 µM in each case. For the same molecule, the TGI in the experiment on ACHN renal, in the experiment with HOP-92 NSCLC, with IGROV1 ovarian, in the experiment on M14 melanoma, in the experiment with NCI/ADR-RES ovarian and in the experiment with PC-3 prostate was more than 100 µM each time. Further, the TGI in the experiment on SK-MEL-2 melanoma, in the experiment on SK-MEL-28 melanoma and in the experiment on SNB-75 CNS was more than 100 µM each time.

As to `O=C1C(Cl)=C(NCCN2CCOCC2)C(=O)c2ncccc21`, the GI50 was 1.45 µM in the experiment with ACHN renal; 1.71 µM in the experiment on IGROV1 ovarian; 4.6 µM with NCI/ADR-RES ovarian; 4.26 µM with PC-3 prostate; 2.16 µM in the experiment on SK-MEL-2 melanoma; 1.67 µM in the experiment on SNB-75 CNS. Also, the TGI was 7.29 µM and 2.91 µM in the experiment with ACHN renal; 3.84 µM and 5.47 µM with HOP-92 NSCLC; 3.73 µM and 3.4 µM in the experiment on IGROV1 ovarian; 3.17 µM and 3.25 µM in the experiment with M14 melanoma; 30.8 µM with NCI/ADR-RES ovarian; 18.7 µM in the experiment on PC-3 prostate. Besides, the TGI is 4.37 µM in the experiment on SK-MEL-2 melanoma; 3.29 µM in the experiment on SK-MEL-28 melanoma; 2.85 µM and 3.58 µM in the experiment with SNB-75 CNS.

Take `Nc1nc2c(nnn2C2CC(O)C(CO)O2)c(=O)[nH]1` (stereo unspecified): the GI50 in the experiment on ACHN renal is 1 µM; in the experiment with HOP-92 NSCLC, 1.62 µM; with IGROV1 ovarian, 9.49 µM; in the experiment on M14 melanoma, 4.47 µM; in the experiment with NCI/ADR-RES ovarian, 3.08 µM; with PC-3 prostate it was 2.55 µM. Moreover, the results for the GI50 with SK-MEL-2 melanoma, in the experiment with SK-MEL-28 melanoma and in the experiment with SNB-75 CNS were 20.2 µM, 20.4 µM and 7.59 µM, respectively. Besides, the TGI in the experiment on ACHN renal is more than 22.7 µM; in the experiment with HOP-92 NSCLC it was 51.1 µM; in the experiment with IGROV1 ovarian it was more than 100 µM; with M14 melanoma it was more than 92.1 µM; in the experiment with NCI/ADR-RES ovarian it was more than 100 µM; in the experiment on PC-3 prostate, more than 100 µM. In addition, the TGI in the experiment with SK-MEL-2 melanoma, in the experiment with SK-MEL-28 melanoma and with SNB-75 CNS was more than 100 µM each time.

`CS(=O)(=O)c1ccc(-n2nc(C(F)(F)F)cc2OC2CCCC2)cc1`: the GI50 in the experiment with ACHN renal is 22.4 µM; in the experiment with HOP-92 NSCLC, 50.7 µM; in the experiment with IGROV1 ovarian, more than 100 µM; in the experiment with M14 melanoma, 32.2 µM; in the experiment with NCI/ADR-RES ovarian, 25 µM; with PC-3 prostate, 27.7 µM. For the same molecule, the GI50 with SK-MEL-2 melanoma, in the experiment with SK-MEL-28 melanoma and in the experiment with SNB-75 CNS was more than 100 µM each time. Further, the TGI in the experiment with ACHN renal is 56 µM; with HOP-92 NSCLC, more than 100 µM; in the experiment with IGROV1 ovarian, more than 100 µM; in the experiment on M14 melanoma, 93.5 µM; with NCI/ADR-RES ovarian, 81.8 µM; with PC-3 prostate it was more than 100 µM. Further, the TGI in the experiment on SK-MEL-2 melanoma, in the experiment with SK-MEL-28 melanoma and in the experiment with SNB-75 CNS was more than 100 µM in each case.

For `Cc1ccc(-c2nc3nc(-c4ccccc4)nc(N4CCCNCC4)c3o2)cc1`, the GI50 was 1.73 µM in the experiment with ACHN renal; 1.44 µM in the experiment on HOP-92 NSCLC; 1.74 µM with IGROV1 ovarian; 1.96 µM in the experiment on M14 melanoma; 2.17 µM in the experiment with NCI/ADR-RES ovarian; 1.69 µM with PC-3 prostate. Besides, the GI50 in the experiment with SK-MEL-2 melanoma was 2.11 µM; with SK-MEL-28 melanoma it was 1.84 µM; with SNB-75 CNS, 1.36 µM. The TGI was determined as 3.12 µM with ACHN renal; 3.01 µM in the experiment with HOP-92 NSCLC; 3.39 µM in the experiment with IGROV1 ovarian; 3.69 µM with M14 melanoma; 4.71 µM in the experiment on NCI/ADR-RES ovarian; 3.17 µM in the experiment with PC-3 prostate. In addition, the TGI with SK-MEL-2 melanoma was determined as 3.84 µM; with SK-MEL-28 melanoma, 3.28 µM; with SNB-75 CNS, 2.68 µM.

For the molecule `CCCCCCCC[C@@H](O)CC(=O)N[C@@H](CC(N)=O)C(=O)N[C@@H](CCC(N)=O)C(=O)N[C@@H](CC(=O)c1cc(C)cc(O)c1C(=O)c1c(O)cccc1O)CC(C)C`, the GI50 was 3.09 µM in the experiment on ACHN renal; 0.201 µM with HOP-92 NSCLC; 0.261 µM in the experiment on IGROV1 ovarian; 0.735 µM with M14 melanoma; 39.6 µM in the experiment on NCI/ADR-RES ovarian; 0.31 µM in the experiment with PC-3 prostate. Also, the GI50 is 2.76 µM in the experiment with SK-MEL-2 melanoma, 1.59 µM with SK-MEL-28 melanoma and 0.199 µM with SNB-75 CNS. In addition, the TGI with ACHN renal is more than 100 µM; in the experiment with HOP-92 NSCLC, 0.939 µM; with IGROV1 ovarian, more than 100 µM; in the experiment with M14 melanoma, 18.4 µM; with NCI/ADR-RES ovarian, more than 100 µM; with PC-3 prostate it was 47.9 µM. The TGI in the experiment with SK-MEL-2 melanoma stood at 8.32 µM; with SK-MEL-28 melanoma, 25.5 µM; with SNB-75 CNS, 0.585 µM.

Turning to `CC1CN1C(=O)NCCCCCCNC(=O)N1CC1C` (stereo unspecified), the TGI with ACHN renal, with HOP-92 NSCLC, in the experiment with IGROV1 ovarian, in the experiment with M14 melanoma, in the experiment with NCI/ADR-RES ovarian and with PC-3 prostate was more than 100 µM in each case. Moreover, the TGI in the experiment with SK-MEL-2 melanoma, with SK-MEL-28 melanoma and in the experiment with SNB-75 CNS was more than 100 µM each time.
